Assay results from patent US20200360364A1, “METHODS AND COMPOSITIONS FOR TREATING INFLAMMATORY OR AUTOIMMUNE DISEASES OR CONDITIONS USING CHRNA6 ACTIVATORS” (Flagship Pioneering Innovations V, Inc., priority 2018, published 2020).
Like-named read-outs stand apart in the source and are kept apart here.

System: iTreg-mediated immunosuppression of CD8+ T-cell activation
Type: cell-based, human
Conditions: for Fold Change % IFNγ+ CD8+ Relative to No Compound Condition: 2 nM final concentration

Compound: CN1CCCC1c1cccnc1 (stereo not shown) [nicotine]
- Fold Change % IFNγ+ CD8+ Relative to No Compound Condition (donor BX23981, CD4+ T-cell:CD8+ T-cell ratio 1:2): 1.20 ± 0.038
- Fold Change % IFNγ+ CD8+ Relative to No Compound Condition (donor BX23981, CD4+ T-cell:CD8+ T-cell ratio 2:1): 0.88 ± 0.035
- Fold Change % IFNγ+ CD8+ Relative to No Compound Condition (donor BX24250, CD4+ T-cell:CD8+ T-cell ratio 1:2): 0.84 ± 0.10
- Fold Change % IFNγ+ CD8+ Relative to No Compound Condition (donor BX24250, CD4+ T-cell:CD8+ T-cell ratio 2:1): 1.07 ± 0.046
- Fold Change % IFNγ+ CD8+ Relative to No Compound Condition (donor BX26425, CD4+ T-cell:CD8+ T-cell ratio 1:1): 0.31 ± 0.089
- Fold Change % IFNγ+ CD8+ Relative to No Compound Condition (donor BX26425, CD4+ T-cell:CD8+ T-cell ratio 1:2): 0.42 ± 0.044
- Fold Change % IFNγ+ CD8+ Relative to No Compound Condition (donor BX26425, CD4+ T-cell:CD8+ T-cell ratio 2:1): 0.18 ± 0.11
- Fold Change % IFNγ+ CD8+ Relative to No Compound Condition (donor BX26825, CD4+ T-cell:CD8+ T-cell ratio 1:1): 0.70 ± 0.10
- Fold Change % IFNγ+ CD8+ Relative to No Compound Condition (donor BX26825, CD4+ T-cell:CD8+ T-cell ratio 1:2): 0.91 ± 0.14
- Fold Change % IFNγ+ CD8+ Relative to No Compound Condition (donor BX27275, CD4+ T-cell:CD8+ T-cell ratio 1:1): 1.16 ± 0.12
- Fold Change % IFNγ+ CD8+ Relative to No Compound Condition (donor BX27275, CD4+ T-cell:CD8+ T-cell ratio 2:1): 1.38 ± 0.41
- Fold Change % IFNγ+ CD8+ Relative to No Compound Condition (donor BX27275, CD4+ T-cell:CD8+ T-cell ratio 2:1 (first line)): 0.9 ± 0.12
- IFNγ+CD8+ T-cells in co-culture (final concentration of 2 nM, added at beginning of iTreg/CD8+ co-culture, read three days after co-culture): trend of decreasing IFNγ+CD8+ T-cells
